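1) Cells in 96-well plates. 2) Compound, 48 h, 5 concentrations. 3) Linear interpolation between surrounding doses. 4) Unreached endpoint = highest concentration. GI50 = concentration required for 50% inhibition of growth.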 Activity calls are given as the source filed them. Cut-off read from the data, not from the text of the source: active = GI50 up to about 1.1 µM and inactive = higher.
What was measured:
Test in all cases: NCI anticancer screen, dose series, 48 h
U-251 = tested on: U-251
HCT-15 = tested on: HCT-15
MDA-MB-231 = tested on: MDA-MB-231
PC-3 = tested on: PC-3
EKVX = tested on: EKVX
SF-268 = tested on: SF-268
SF-539 = tested on: SF-539
SK-OV-3 = tested on: SK-OV-3
NCI-H522 = tested on: NCI-H522
CAKI-1 = tested on: CAKI-1
RPMI-8226 = tested on: RPMI-8226
HL-60 = tested on: HL-60
NCI-H226 = tested on: NCI-H226
MDA-MB-435 = tested on: MDA-MB-435
SR = tested on: SR
HCT-116 = tested on: HCT-116
SK-MEL-2 = tested on: SK-MEL-2
SF-295 = tested on: SF-295
SK-MEL-28 = tested on: SK-MEL-28
SNB-75 = tested on: SNB-75

CC(=O)Nc1sccc1S(=O)(=O)c1ccc(Cl)cc1
GI50 (U-251): > 100 µM (inactive) | GI50 (HCT-15): > 100 µM | GI50 (MDA-MB-231): > 100 µM (inactive) | GI50 (PC-3): > 100 µM (inactive) | GI50 (EKVX): > 100 µM (inactive) | GI50 (SF-268): > 100 µM (inactive) | GI50 (SF-539): > 100 µM (inactive) | GI50 (SK-OV-3): > 100 µM (inactive) | GI50 (NCI-H522): > 100 µM (inactive) | GI50 (CAKI-1): > 100 µM (inactive) | GI50 (RPMI-8226): > 100 µM (inactive) | GI50 (HL-60): > 100 µM (inactive) | GI50 (NCI-H226): > 100 µM (inactive) | GI50 (MDA-MB-435): > 100 µM (inactive) | GI50 (SR): > 100 µM (inactive) | GI50 (HCT-116): > 100 µM (inactive) | GI50 (SK-MEL-2): > 100 µM (inactive) | GI50 (SF-295): > 100 µM (inactive) | GI50 (SK-MEL-28): > 100 µM (inactive) | GI50 (SNB-75): 55.6 µM (inactive)
